According to ChEMBL document CHEMBL1141723, “Specific targeting of metzincin family members with small-molecule inhibitors: progress toward a multifarious challenge” (Bioorg Med Chem, 2008):

Assays:
[1] = target: 72 kDa type IV collagenase (Homo sapiens, UniProt P08253)
Neutrophil collagenase = Neutrophil collagenase (Homo sapiens, UniProt P22894); test: Inhibition of MMP8
Collagenase 3 = Collagenase 3 (Homo sapiens, UniProt P45452); test: Inhibition of MMP13
[2] = target: Matrix metalloproteinase-14 (Homo sapiens, UniProt P50281); test: Inhibition of MMP14
[3] = target: Matrix metalloproteinase-9 (Homo sapiens, UniProt P14780); test: Inhibition of MMP9
Stromelysin-3 = Stromelysin-3 (Homo sapiens, UniProt P24347); test: Inhibition of MMP11
Interstitial collagenase = target: T1, Interstitial collagenase (Homo sapiens, UniProt P03956)
T1 sequence (P03956 whole entry): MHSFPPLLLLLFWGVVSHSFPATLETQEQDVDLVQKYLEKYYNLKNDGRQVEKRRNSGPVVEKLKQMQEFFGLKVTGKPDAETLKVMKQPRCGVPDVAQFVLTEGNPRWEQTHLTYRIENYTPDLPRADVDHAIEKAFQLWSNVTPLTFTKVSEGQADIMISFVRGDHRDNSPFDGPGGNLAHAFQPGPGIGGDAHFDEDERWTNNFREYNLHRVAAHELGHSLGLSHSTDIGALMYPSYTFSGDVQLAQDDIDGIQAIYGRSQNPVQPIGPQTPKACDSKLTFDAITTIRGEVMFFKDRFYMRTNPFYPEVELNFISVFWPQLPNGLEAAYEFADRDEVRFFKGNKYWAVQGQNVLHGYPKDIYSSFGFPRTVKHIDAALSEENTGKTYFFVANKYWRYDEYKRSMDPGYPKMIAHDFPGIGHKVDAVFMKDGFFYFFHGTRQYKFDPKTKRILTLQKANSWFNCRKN

[4] = target: Disintegrin and metalloproteinase domain-containing protein 17 (Sus scrofa, UniProt O77636); test: Inhibition of pig TACE
[5] = Selectivity for TACE over ADAM10
[6] = Selectivity for TACE over MMP7
[7] = Selectivity for TACE over BMP1
[8] = Selectivity for TACE over MMP14
[9] = Selectivity for TACE over MMP1
[10] = Selectivity for TACE over MMP2
[11] = Selectivity for TACE over MMP3
[12] = target: T2, Disintegrin and metalloproteinase domain-containing protein 10 (Homo sapiens, UniProt O14672); test: Inhibition of ADAM10
T2 sequence (O14672 whole entry): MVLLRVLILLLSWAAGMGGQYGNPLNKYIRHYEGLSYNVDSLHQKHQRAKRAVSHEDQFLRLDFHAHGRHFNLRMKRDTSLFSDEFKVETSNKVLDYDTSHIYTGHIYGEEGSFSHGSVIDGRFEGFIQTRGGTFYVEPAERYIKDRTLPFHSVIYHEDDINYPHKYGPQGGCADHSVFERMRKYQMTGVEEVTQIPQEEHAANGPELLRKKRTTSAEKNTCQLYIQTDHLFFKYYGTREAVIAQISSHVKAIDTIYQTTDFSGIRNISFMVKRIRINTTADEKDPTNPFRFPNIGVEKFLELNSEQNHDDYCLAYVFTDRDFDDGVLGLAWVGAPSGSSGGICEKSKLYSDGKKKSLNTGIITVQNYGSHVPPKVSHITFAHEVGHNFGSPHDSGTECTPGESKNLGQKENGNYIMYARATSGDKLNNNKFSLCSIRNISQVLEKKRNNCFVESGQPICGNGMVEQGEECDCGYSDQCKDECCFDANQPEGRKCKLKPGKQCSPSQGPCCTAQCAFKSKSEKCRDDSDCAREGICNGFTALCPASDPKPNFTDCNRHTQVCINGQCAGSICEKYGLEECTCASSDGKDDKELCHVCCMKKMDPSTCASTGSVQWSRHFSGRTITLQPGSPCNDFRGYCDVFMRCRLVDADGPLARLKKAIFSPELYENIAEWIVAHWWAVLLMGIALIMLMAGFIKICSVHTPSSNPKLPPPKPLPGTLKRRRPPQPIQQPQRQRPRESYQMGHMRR

[13] = target: Disintegrin and metalloproteinase domain-containing protein 17 (Homo sapiens, UniProt P78536); test: Inhibition of TACE
Matrilysin = target: T3, Matrilysin (Homo sapiens, UniProt P09237)
T3 sequence (P09237 whole entry): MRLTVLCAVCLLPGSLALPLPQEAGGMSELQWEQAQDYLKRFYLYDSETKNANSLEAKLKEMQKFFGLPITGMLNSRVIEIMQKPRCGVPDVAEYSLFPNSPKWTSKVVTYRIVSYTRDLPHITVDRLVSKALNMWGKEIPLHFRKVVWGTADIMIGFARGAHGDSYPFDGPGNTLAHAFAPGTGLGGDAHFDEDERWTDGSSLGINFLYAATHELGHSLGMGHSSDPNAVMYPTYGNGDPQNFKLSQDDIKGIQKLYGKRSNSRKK

[14] = target: Macrophage metalloelastase (Homo sapiens, UniProt P39900); test: Inhibition of MMP12
Stromelysin-1 = Stromelysin-1 (Homo sapiens, UniProt P08254)
[15] = Inhibition of bovine aggrecanase; parameters: species or system Bos taurus
[16] = Inhibition of aggrecanase at 1 uM
[17] = target: T4, Interstitial collagenase (Homo sapiens) (UniProt P03956); test: Inhibition of MMP1 at 100 uM
T4 sequence (whole entry): T1 sequence (P03956 whole entry)

Chain of Neutrophil collagenase (P22894 whole entry): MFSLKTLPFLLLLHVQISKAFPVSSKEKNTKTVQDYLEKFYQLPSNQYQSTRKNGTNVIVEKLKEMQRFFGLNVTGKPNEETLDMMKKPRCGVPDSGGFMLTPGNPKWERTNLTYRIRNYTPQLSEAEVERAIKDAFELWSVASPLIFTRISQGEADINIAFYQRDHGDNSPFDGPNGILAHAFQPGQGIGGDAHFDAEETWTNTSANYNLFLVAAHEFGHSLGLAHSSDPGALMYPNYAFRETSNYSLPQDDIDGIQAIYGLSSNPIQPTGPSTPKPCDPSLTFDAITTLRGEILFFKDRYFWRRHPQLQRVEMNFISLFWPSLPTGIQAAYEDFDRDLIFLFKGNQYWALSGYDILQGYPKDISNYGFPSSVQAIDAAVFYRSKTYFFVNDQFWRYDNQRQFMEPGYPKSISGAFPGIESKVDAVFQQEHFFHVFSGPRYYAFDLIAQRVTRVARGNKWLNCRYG
Chain of 72 kDa type IV collagenase (P08253 whole entry): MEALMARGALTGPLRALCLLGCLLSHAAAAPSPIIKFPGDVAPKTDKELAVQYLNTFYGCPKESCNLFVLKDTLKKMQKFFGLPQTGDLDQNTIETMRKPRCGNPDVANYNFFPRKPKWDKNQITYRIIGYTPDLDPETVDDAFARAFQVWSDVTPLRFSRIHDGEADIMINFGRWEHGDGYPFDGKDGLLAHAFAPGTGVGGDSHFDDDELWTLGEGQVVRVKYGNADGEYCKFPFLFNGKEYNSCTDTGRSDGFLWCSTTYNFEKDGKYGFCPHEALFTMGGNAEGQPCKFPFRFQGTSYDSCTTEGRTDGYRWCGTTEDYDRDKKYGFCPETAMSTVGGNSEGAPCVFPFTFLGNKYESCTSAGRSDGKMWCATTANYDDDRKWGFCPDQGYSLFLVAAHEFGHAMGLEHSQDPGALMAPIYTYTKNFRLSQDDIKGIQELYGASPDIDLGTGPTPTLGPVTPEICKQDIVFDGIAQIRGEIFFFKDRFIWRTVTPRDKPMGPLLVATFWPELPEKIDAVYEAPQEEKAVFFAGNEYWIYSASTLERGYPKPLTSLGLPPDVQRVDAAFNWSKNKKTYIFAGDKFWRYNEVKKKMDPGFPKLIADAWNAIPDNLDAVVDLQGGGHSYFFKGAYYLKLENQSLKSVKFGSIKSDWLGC
Chain of Stromelysin-1 (P08254 whole entry): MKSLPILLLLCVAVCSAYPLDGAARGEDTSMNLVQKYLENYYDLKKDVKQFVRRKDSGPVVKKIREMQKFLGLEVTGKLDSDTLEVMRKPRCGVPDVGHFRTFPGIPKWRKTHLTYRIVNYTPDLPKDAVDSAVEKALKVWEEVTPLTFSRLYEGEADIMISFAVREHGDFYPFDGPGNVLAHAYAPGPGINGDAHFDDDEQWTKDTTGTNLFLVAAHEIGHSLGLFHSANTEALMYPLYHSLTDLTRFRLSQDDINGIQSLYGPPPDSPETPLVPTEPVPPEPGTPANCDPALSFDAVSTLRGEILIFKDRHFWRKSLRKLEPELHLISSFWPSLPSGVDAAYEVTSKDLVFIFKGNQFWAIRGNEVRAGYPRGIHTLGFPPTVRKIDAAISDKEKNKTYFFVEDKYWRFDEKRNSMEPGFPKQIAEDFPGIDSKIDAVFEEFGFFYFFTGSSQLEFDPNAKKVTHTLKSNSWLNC
Chain of Disintegrin and metalloproteinase domain-containing protein 17 (Homo sapiens, UniProt P78536) (P78536 whole entry, the tested form may be a part): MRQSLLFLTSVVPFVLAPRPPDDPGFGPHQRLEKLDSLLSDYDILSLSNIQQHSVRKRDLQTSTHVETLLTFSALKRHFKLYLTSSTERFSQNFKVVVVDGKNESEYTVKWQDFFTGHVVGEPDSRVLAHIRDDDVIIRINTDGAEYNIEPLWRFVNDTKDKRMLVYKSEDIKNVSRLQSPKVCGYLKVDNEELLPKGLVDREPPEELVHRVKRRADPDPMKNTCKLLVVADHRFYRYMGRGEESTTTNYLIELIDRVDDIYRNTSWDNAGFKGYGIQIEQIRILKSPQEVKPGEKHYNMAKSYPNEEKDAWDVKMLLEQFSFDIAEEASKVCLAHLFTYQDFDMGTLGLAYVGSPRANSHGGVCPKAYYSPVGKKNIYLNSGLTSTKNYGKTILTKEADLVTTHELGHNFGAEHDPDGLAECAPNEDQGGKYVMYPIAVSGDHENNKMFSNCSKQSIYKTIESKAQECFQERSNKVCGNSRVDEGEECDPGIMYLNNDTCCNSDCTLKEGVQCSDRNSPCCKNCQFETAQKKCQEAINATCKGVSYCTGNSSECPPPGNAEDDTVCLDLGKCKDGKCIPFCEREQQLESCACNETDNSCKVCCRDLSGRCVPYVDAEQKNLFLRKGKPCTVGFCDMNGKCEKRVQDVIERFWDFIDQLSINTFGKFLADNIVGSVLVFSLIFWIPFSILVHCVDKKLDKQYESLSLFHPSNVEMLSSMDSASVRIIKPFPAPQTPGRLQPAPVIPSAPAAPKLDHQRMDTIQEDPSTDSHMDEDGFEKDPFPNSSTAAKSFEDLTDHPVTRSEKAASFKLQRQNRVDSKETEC
Chain of Matrix metalloproteinase-9 (P14780 whole entry): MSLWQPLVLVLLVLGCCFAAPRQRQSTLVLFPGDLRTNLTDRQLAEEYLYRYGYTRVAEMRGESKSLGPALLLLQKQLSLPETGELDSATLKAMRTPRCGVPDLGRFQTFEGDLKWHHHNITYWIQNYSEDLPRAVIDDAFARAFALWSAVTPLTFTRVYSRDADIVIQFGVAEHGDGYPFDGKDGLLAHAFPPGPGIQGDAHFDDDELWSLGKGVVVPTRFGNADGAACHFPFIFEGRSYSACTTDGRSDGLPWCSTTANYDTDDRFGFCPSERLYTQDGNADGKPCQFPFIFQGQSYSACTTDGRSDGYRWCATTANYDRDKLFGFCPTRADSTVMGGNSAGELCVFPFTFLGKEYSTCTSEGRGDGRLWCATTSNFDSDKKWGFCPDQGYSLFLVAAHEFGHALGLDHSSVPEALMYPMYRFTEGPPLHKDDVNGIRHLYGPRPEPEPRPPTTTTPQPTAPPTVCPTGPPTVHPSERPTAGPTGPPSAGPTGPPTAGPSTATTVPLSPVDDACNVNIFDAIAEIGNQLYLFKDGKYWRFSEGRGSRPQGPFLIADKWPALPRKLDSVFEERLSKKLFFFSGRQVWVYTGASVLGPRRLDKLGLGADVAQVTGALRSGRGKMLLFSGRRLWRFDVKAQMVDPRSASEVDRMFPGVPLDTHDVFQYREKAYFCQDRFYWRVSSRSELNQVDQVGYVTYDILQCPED
Chain of Macrophage metalloelastase (P39900 whole entry): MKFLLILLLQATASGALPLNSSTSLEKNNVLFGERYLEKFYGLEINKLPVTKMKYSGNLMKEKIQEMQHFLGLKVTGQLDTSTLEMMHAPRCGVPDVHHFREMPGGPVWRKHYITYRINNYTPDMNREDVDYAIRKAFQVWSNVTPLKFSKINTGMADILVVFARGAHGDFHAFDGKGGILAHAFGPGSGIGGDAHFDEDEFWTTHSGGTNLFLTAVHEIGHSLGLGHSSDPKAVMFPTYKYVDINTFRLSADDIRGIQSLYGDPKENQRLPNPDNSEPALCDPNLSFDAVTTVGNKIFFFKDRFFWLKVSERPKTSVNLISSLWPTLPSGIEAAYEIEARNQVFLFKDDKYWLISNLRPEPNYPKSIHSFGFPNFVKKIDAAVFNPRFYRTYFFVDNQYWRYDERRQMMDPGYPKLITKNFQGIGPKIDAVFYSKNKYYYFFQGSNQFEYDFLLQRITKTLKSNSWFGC
Chain of Stromelysin-3 (P24347 whole entry): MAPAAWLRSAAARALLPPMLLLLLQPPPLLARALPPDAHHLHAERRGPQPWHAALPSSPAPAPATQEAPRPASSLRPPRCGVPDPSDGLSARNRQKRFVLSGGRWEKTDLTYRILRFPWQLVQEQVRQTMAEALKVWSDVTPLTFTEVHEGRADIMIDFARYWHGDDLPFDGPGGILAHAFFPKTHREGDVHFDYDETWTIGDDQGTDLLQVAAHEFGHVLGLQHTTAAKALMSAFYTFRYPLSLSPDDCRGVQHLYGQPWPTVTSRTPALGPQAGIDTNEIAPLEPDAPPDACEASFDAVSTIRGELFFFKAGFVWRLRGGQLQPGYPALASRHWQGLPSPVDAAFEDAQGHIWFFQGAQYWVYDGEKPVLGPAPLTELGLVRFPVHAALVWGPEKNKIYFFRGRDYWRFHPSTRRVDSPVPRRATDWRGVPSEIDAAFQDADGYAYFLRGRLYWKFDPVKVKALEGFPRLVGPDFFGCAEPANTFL
Chain of Disintegrin and metalloproteinase domain-containing protein 17 (Sus scrofa, UniProt O77636) (O77636 whole entry, the tested form may be a part): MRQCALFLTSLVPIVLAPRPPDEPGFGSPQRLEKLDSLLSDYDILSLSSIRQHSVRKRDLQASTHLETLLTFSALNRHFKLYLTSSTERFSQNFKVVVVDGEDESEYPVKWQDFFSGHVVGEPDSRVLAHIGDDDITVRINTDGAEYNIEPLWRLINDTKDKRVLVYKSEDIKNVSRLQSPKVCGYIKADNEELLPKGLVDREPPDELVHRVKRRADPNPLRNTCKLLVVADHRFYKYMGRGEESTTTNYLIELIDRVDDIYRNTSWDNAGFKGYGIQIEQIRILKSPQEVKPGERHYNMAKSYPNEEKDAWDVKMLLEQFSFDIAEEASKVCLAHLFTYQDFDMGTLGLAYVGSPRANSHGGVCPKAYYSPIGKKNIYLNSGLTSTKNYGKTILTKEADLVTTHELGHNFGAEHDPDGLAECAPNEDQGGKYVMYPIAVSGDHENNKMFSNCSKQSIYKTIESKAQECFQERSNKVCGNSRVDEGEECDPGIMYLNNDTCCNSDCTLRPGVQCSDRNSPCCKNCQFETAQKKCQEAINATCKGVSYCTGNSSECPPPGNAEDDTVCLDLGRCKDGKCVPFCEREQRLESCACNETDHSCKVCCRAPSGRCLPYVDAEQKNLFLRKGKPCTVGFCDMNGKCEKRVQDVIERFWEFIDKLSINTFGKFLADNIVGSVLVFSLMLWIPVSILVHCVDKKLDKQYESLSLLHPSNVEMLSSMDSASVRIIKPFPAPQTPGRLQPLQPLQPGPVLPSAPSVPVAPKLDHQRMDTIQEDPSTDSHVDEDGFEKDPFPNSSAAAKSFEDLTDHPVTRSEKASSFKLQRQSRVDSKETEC

Q: What does the source list for `COc1ccccc1SC[C@H](CP(=O)(O)[C@H](Cc1ccccc1)NC(=O)OCc1ccccc1)C(=O)N[C@@H](Cc1c[nH]c2ccccc12)C(N)=O`?
A: Ki [1]: 30 nM; Ki (Neutrophil collagenase): 38.9 nM; Ki (Collagenase 3): 15.7 nM; Ki [2]: 160 nM; Ki [3]: 35.6 nM; Ki (Stromelysin-3): 0.23 nM

Q: Which results are given for `Cc1cc(COc2ccc(NC(=O)[C@H]3[C@H](C(=O)NO)CCCN3C)cc2)c2ccccc2n1`?
A: Ki [1]: > 3330 nM; Ki (Interstitial collagenase): > 4.95 µM; IC50 [4]: 6.2 nM; Ki [3]: > 2130 nM

Q: Which results are given for `COC(=O)[C@@]1(Cc2ccc(OCc3cc(C)nc4ccccc34)cc2)C[C@@H]1C(=O)NO`?
A: fold change (FC) [5]: > 7000; fold change (FC) [6]: 200; fold change (FC) [7]: 2200; fold change (FC) [8]: 1800; fold change (FC) [9]: > 12500; fold change (FC) [10]: 1100; fold change (FC) [11]: 100

Q: Which IC50 [12] does the source give for `CC#CCOc1ccc(S(=O)(=O)N[C@@H](C(=O)NO)[C@H](C)O)cc1` here?
A: Its IC50 is 1090 nM.

Q: What about the IC50 [13] of the same molecule?
A: The IC50 was 2 nM.

Q: What about the IC50 (Interstitial collagenase) of the same molecule?
A: Its IC50 is 2470 nM.

Q: What about the IC50 (Neutrophil collagenase) of the same molecule?
A: The IC50 was 35 nM.

Q: And the IC50 (Matrilysin)?
A: The IC50 was 961 nM.

Q: And the IC50 (Collagenase 3)?
A: Its IC50 is 96 nM.

Q: What about the IC50 [2] of the same molecule?
A: The IC50 was 582 nM.

Q: And the IC50 [3]?
A: Its IC50 is 777 nM.

Q: With `COc1ccc(C2=NNC3(S2)C(=O)N(Cc2ccccc2)c2ccc(C)cc23)cc1` (stereo not drawn) as the molecule, how does the IC50 (Collagenase 3) read?
A: Its IC50 is over 100000 nM.

Q: And the IC50 [14]?
A: Its IC50 is over 22000 nM.

Q: What does the source list for `CC1(CN[C@H](C(=O)NO)[C@@H](Cc2cccc(O)c2)C(=O)N[C@H]2c3ccccc3C[C@H]2O)CC1`?
A: Ki [1]: > 3000 nM; Ki (Stromelysin-1): > 4.5 µM; Ki (Interstitial collagenase): 5.25 µM; Ki (Collagenase 3): > 5000 nM; IC50 [15]: 8 nM; Ki [3]: < 1 nM

Q: For `O=C(O)C[C@@H](NC(=O)c1cc(-c2ccc(-c3ccncc3)cc2)cs1)c1ccccc1`, which IC50 [1] is on record?
A: Its IC50 is over 100 µM.

Q: What about the IC50 (Stromelysin-1) of the same molecule?
A: The IC50 was 390 nM.

Q: And the IC50 (Neutrophil collagenase)?
A: The IC50 was 1700 nM.

Q: What about the IC50 [3] of the same molecule?
A: Its IC50 is 980 nM.

Q: For `CN1CC2(CC2)C[C@H](C(=O)NO)[C@H]1C(=O)N1CCN(c2ccc(C(F)(F)F)cn2)CC1`, which IC50 [12] is on record?
A: The IC50 was 97 nM.

Q: What about the IC50 [13] of the same molecule?
A: Its IC50 is 2040 nM.

Q: What about the IC50 [14] of the same molecule?
A: Its IC50 is 564 nM.

Q: Which inhibition [16] does the source give for `Cc1cc(COc2ccc(C(=O)NCC3(N4CCN(S(C)(=O)=O)CC4)C(=O)NC(=O)NC3=O)cc2)c2ccccc2n1` here?
A: The inhibition was 11%.

Q: Which results are given for `COc1c(Br)ccc2oc(COc3ccc(-c4ccc(S(=O)(=O)N[C@@H](C(=O)O)C(C)C)cc4)cc3)c(C)c12`?
A: IC50 [13]: > 25000 nM; IC50 (Stromelysin-1): 81 nM; IC50 (Interstitial collagenase): > 400000 nM; IC50 (Neutrophil collagenase): 42 nM

Q: For `CCCN1C(=O)[C@H](CS)NC(=O)[C@@H]1Cc1ccc([N+](=O)[O-])cc1`, which IC50 (Stromelysin-1) is on record?
A: Its IC50 is over 20000 nM.

Q: For `O=C(NO)[C@@H](NCC1CC1)[C@@H](Cc1cccc(O)c1)C(=O)N[C@H]1c2ccccc2C[C@H]1O`, which IC50 [15] is on record?
A: The IC50 was 12 nM.

Q: For `COC[C@@H](NC(=O)[C@@H](NC(=O)[C@H](CCCc1ccc(-c2ccccc2)c(C)c1)CC(=O)O)C(C)(C)C)c1ccccc1`, which inhibition [17] is on record?
A: Its inhibition is 20%.
